Here are results for 23 compounds from patent US10570129B2 (Zoetis Services LLC, priority 2015, dated 2020).

The subject of experiment [1] is D. immitis microfilariae. The experiment in a line: Dirofilaria immitis, microfilariae (DiMF) in vitro motility assay. The class given is cell-based. As to conditions: Dirofilaria immitis, 72 h, read-out: DiMF minimally effective dose (MEC).
Experiment [2] concerns Haemonchus contortus L3. The experiment in a line: microbe, parasite or virus in culture. As to conditions: Haemonchus contortus, 96 h, read-out: HcL3 Minimal Effective Concentration (MEC). The class given is cell-based.

Where only a bound is given, the exact number is not on record here.

For the compound `O=C(NCc1ccnc(Cl)c1)n1c2c(c3cc(Br)ccc31)CN(C/C=C/c1ccc(F)cc1F)CC2` [Example 181, (E)-8-bromo-N-((2-chloropyridin-4-yl)methyl)-2-(3-(2,4-difluorophenyl)allyl)-1,2,3,4-tetrahydro-5H-pyrido[4,3-b]indole-5-carboxamide], the results for the minimal effective concentration in experiment [1] and in experiment [2] were 32.3 µM and 0.2 µM, respectively.

`Cc1ccc2c3c(n(C(=O)NCc4ccnc(Cl)c4)c2c1)CCN(C/C=C/c1ccc(Cl)c(Cl)c1)C3` [Example 145, (E)-N-((2-chloropyridin-4-yl)methyl)-2-(3-(3,4-dichlorophenyl)allyl)-7-methyl-1,2,3,4-tetrahydro-5H-pyrido[4,3-b]indole-5-carboxamide]: the minimal effective concentration in experiment [1] is 33 µM; in experiment [2] it was 1 µM.

With `O=C(NCc1ccnc(Cl)c1)n1c2c(c3ccc(N4CCOCC4)cc31)CN(C/C=C/c1ccc(Cl)c(F)c1)CC2` [Example 509, (E)-2-(3-(4-chloro-3-fluorophenyl)allyl)-N-((2-chloropyridin-4-yl)methyl)-7-morpholino-1,2,3,4-tetrahydro-5H-pyrido[4,3-b]indole-5-carboxamide], the minimal effective concentration in experiment [1] was found to be 18.2 µM; in experiment [2], 1 µM.

For `O=C(NCc1ccnc(Cl)c1)n1c2c(c3cc(F)c(Cl)cc31)CN(C/C=C/c1cc(F)cc(F)c1)CC2` [Example 302, (E)-7-chloro-N-((2-chloropyridin-4-yl)methyl)-2-(3-(3,5-difluorophenyl)-allyl)-8-fluoro-1,2,3,4-tetrahydro-5H-pyrido[4,3-b]indole-5-carboxamide], the values for the minimal effective concentration in experiment [1] and in experiment [2] were 5.7 µM and 0.3 µM, respectively.

As to `N#Cc1ccc2c(c1)c1c(n2C(=O)NCc2ccnc(Cl)c2)CCN(C/C=C/c2ccc(Cl)c(Br)c2)C1` [Example 97, (E)-2-(3-(3-bromo-4-chlorophenyl)allyl)-N-((2-chloropyridin-4-yl)methyl)-8-cyano-1,2,3,4-tetrahydro-5H-pyrido[4,3-b]indole-5-carboxamide], the results for the minimal effective concentration in experiment [1] and in experiment [2] were more than 100 µM and 0.3 µM, respectively.

In the case of `O=C(NCc1ccnc(Cl)c1)n1c2c(c3cc4c(cc31)COC4)CN(C/C=C/c1ccc(C(F)(F)F)cc1)CC2` [Example 482, (E)-N-((2-chloropyridin-4-yl)methyl)-8-(3-(4-(trifluoromethyl)phenyl)allyl)-1,3,6,7,8,9-hexahydro-5H-furo[3,4-f]pyrido[4,3-b]indole-5-carboxamide], the minimal effective concentration in experiment [1] turned out to be 3.3 µM; in experiment [2] it was 1.8 µM.

Consider `O=C(NCc1ccnc(F)c1)n1c2c(c3cc(OC(F)(F)F)ccc31)CN(C/C=C/c1ccc(Cl)c(F)c1)CC2` [Example 401, (E)-2-(3-(4-chloro-3-fluorophenyl)allyl)-N-((2-fluoropyridin-4-yl)methyl)-8-(trifluoromethoxy)-1,2,3,4-tetrahydro-5H-pyrido[4,3-b]indole-5-carboxamide], for which the figures for the minimal effective concentration in experiment [1] and in experiment [2] were 18.2 µM and 0.5 µM, respectively.

`CS(=O)(=O)c1ccc(/C=C/CN2CCc3c(c4cc(C#N)ccc4n3C(=O)NCc3ccnc(F)c3)C2)cc1` [Example 100, (E)-8-cyano-N-((2-fluoropyridin-4-yl)methyl)-2-(3-(4-(methylsulfonyl)-phenyl)allyl)-1,2,3,4-tetrahydro-5H-pyrido[4,3-b]indole-5-carboxamide]: the minimal effective concentration in experiment [1] and in experiment [2] was more than 100 µM throughout.

With `N#Cc1ccc2c(c1)c1c(n2C(=O)NCc2ccnc(O)c2)CCN(C/C=C/c2ccc(Br)cc2F)C1` [Example 451, (E)-2-(3-(4-bromo-2-fluorophenyl)allyl)-8-cyano-N-((2-hydroxypyridin-4-yl)methyl)-1,2,3,4-tetrahydro-5H-pyrido[4,3-b]indole-5-carboxamide], the minimal effective concentration in experiment [1] is 3.3 µM; in experiment [2], more than 100 µM.

As to `O=C(NCc1ccnc(Cl)c1)n1c2c(c3cc(N4CCSCC4)ccc31)CN(C/C=C/c1ccc(Cl)c(F)c1)CC2` [Example 510], the minimal effective concentration in experiment [1] and in experiment [2] was more than 100 µM in each case.

Take `O=C(NCc1ccnc(F)c1)n1c2c(c3cc(Cl)ccc31)CN(C/C=C/c1ccc(F)cc1Cl)CC2` [Example 256, (E)-8-chloro-2-(3-(2-chloro-4-fluorophenyl)allyl)-N-((2-fluoropyridin-4-yl)methyl)-1,2,3,4-tetrahydro-5H-pyrido[4,3-b]indole-5-carboxamide]: the minimal effective concentration in experiment [1] was 10 µM; in experiment [2], 0.2 µM.

For the compound `O=C(NCc1ccnc(F)c1)n1c2c(c3cc(F)c(OC(F)(F)F)cc31)CN(C/C=C/c1ccc(Cl)cc1)CC2` [Example 472, (E)-2-(3-(4-chlorophenyl)allyl)-8-fluoro-N-((2-fluoropyridin-4-yl)methyl)-7-(trifluoromethoxy)-1,2,3,4-tetrahydro-5H-pyrido[4,3-b]indole-5-carboxamide], the minimal effective concentration in experiment [1] came to 10 µM; in experiment [2], 1 µM.

In the case of `NC(=O)c1ccc2c(c1)c1c(n2C(=O)NCc2ccnc(Cl)c2)CCN(C/C=C/c2ccc(Cl)c(F)c2)C1` [Example 467, (E)-2-(3-(4-chloro-3-fluorophenyl)allyl)-N^5-((2-chloropyridin-4-yl)methyl)-1,2,3,4-tetrahydro-5H-pyrido[4,3-b]indole-5,8-dicarboxamide], the minimal effective concentration is 1 µM in experiment [1] and more than 100 µM in experiment [2].

With `O=C(NCc1ccnc(Cl)c1)n1c2c(c3cc(C(F)(F)F)ccc31)CN(C/C=C/c1ccc(F)c(Cl)c1)CC2` [Example 413, (E)-2-(3-(3-chloro-4-fluorophenyl)allyl)-N-((2-chloropyridin-4-yl)methyl)-8-(trifluoromethyl)-1,2,3,4-tetrahydro-5H-pyrido[4,3-b]indole-5-carboxamide], the minimal effective concentration in experiment [1] was more than 100 µM; in experiment [2], 1.8 µM.

As to `N#Cc1ccc2c3c(n(C(=O)NCc4ccnc(Cl)c4)c2c1)CCN(C/C=C/c1c(F)c(F)c(F)c(F)c1F)C3` [Example 16, (E)-N-((2-chloropyridin-4-yl)methyl)-7-cyano-2-(3-(perfluorophenyl)allyl)-1,2,3,4-tetrahydro-5H-pyrido[4,3-b]indole-5-carboxamide], the minimal effective concentration in experiment [1] and in experiment [2] was more than 100 µM in each case.

Turning to `O=C(NCc1ccnc(Cl)c1)n1c2c(c3cc(Cl)ccc31)CN(C/C=C/c1ccc(F)cc1)CC2` [Example 244, (E)-8-chloro-N-((2-chloropyridin-4-yl)methyl)-2-(3-(4-fluorophenyl)allyl)-1,2,3,4-tetrahydro-5H-pyrido[4,3-b]indole-5-carboxamide], the minimal effective concentration amounted to 10 µM in experiment [1] and 0.7 µM in experiment [2].

Take `N#Cc1ccc(/C=C/CN2CCc3c(c4ccc(Cl)cc4n3C(=O)NCc3ccnc(Cl)c3)C2)cc1F` [Example 208, (E)-7-chloro-N-((2-chloropyridin-4-yl)methyl)-2-(3-(4-cyano-3-fluorophenyl)allyl)-1,2,3,4-tetrahydro-5H-pyrido[4,3-b]indole-5-carboxamide]: the minimal effective concentration is more than 100 µM in experiment [1] and 1.8 µM in experiment [2].

In the case of `N#Cc1ccc2c(c1)c1c(n2C(=O)NCc2ccnc(F)c2)CCN(C/C=C/c2cccc(Cl)c2F)C1` [Example 118, (E)-2-(3-(3-chloro-2-fluorophenyl)allyl)-8-cyano-N-((2-fluoropyridin-4-yl)methyl)-1,2,3,4-tetrahydro-5H-pyrido[4,3-b]indole-5-carboxamide], the minimal effective concentration in experiment [1] is 5.7 µM; in experiment [2], 1.8 µM.

As to `N#Cc1ccc2c(c1)c1c(n2C(=O)NCc2ccnc(Cl)c2)CCN(C/C=C/c2ccc(F)c(Br)c2)C1` [Example 79, (E)-2-(3-(3-bromo-4-fluorophenyl)allyl)-N-((2-chloropyridin-4-yl)methyl)-8-cyano-1,2,3,4-tetrahydro-5H-pyrido[4,3-b]indole-5-carboxamide], the minimal effective concentration in experiment [1] was more than 100 µM; in experiment [2] it was 0.3 µM.

As for `O=C(NCc1ccnc(F)c1)n1c2c(c3c(C(F)(F)F)cc(F)cc31)CN(C/C=C/c1ccc(Cl)cc1)CC2` [Example 326, (E)-2-(3-(4-chlorophenyl)allyl)-7-fluoro-N-((2-fluoropyridin-4-yl)methyl)-9-(trifluoromethyl)-1,2,3,4-tetrahydro-5H-pyrido[4,3-b]indole-5-carboxamide], the minimal effective concentration in experiment [1] stood at 10 µM; in experiment [2] it was 7.6 µM.

For the compound `O=C(NCc1ccnc(Cl)c1)n1c2c(c3ccc(Br)cc31)CN(C/C=C/c1ccc(F)c(Cl)c1)CC2` [Example 439, (E)-7-bromo-2-(3-(3-chloro-4-fluorophenyl)allyl)-N-((2-chloropyridin-4-yl)methyl)-1,2,3,4-tetrahydro-5H-pyrido[4,3-b]indole-5-carboxamide], the minimal effective concentration in experiment [1] is 18.2 µM; in experiment [2], 1.8 µM.

`Cc1ccc2c(c1)c1c(n2C(=O)NCc2ccnc(Cl)c2)CCN(C/C=C/c2ccc(F)cc2)C1` [Example 433, (E)-N-((2-chloropyridin-4-yl)methyl)-2-(3-(4-fluorophenyl)allyl)-8-methyl-1,2,3,4-tetrahydro-5H-pyrido[4,3-b]indole-5-carboxamide]: the minimal effective concentration in experiment [1] was 5.7 µM; in experiment [2], 0.5 µM.

As to `N#Cc1ccc2c(c1)c1c(n2C(=O)NCc2ccnc(F)c2)CCN(C/C=C/c2ccc(F)c(C#N)c2)C1` [Example 113, (E)-8-cyano-2-(3-(3-cyano-4-fluorophenyl)allyl)-N-((2-fluoropyridin-4-yl)methyl)-1,2,3,4-tetrahydro-5H-pyrido[4,3-b]indole-5-carboxamide], the results for the minimal effective concentration in experiment [1] and in experiment [2] were more than 100 µM and 1.3 µM, respectively.
